# Results: publication PMC4186430, “Modeling of age-dependent amyloid accumulation and γ-secretase inhibition of soluble and insoluble Aβ in a transgenic mouse model of amyloid deposition” (Pharmacology Research & Perspectives, 2013)
# Marks after values point to notes of the source that are not given here.
# Tests used:
# [1] = system: total Aβ40; set-up: method as in Best et al. [2007]; conditions: 12-month-old Tg2576 mice; ref Best et al. [2007]; cited from earlier work
# [2] = system: soluble Aβ40; experiment: Soluble (DEA) brain Aβ40 levels in Tg2576 mice after MRK-560, ELISA; assay type: in vivo, Tg2576 transgenic mice
# Text: (§1) C57BL/6 female mice (Harlan Laboratories, Horst, The Netherlands), Tg2576 transgenic female mice (Taconics, Georgetown, NY), overexpressing human APP with the Swedish mutation (Hsiao et al. [1996]), and Tg2576 wild-type littermates were used in the experiments. The C57BL/6 and wild-type littermates were only used for pharmacokinetic PK sampling and analysis. The housing environment was humidity- and temperature-controlled with a constant 12-h light/dark cycle. The animals were kept in conventional housing (5–10 mice per cage) and had access to standard rodent chow and tap water ad libitum. The transgenic mice were aged at the local AstraZeneca (AZ) animal facilities. On the day of study, the mice were weighed. MRK-560 (synthesized in-house; AZ) or vehicle was administered by oral gavage. Three types of vehicles were used: (1) 1% MCC/NaCMC (Microcrystalline Cellulose/Sodiumcarboxymethyl Cellulose) +0.6% lipoid S100, (2) 20% HPβCD in 0.1 mol/L Meglumine, and (3) 40% HPβCD in 0.3 mol/L Meglumine. Observations of the animals’ health were made throughout all the experiments. Data from 23 MRK-560 studies were used in this analysis and details of all studies can be found in Table 1. For the AP analysis, data from vehicle and untreated Tg2576 mice from 48 additional (i.e., non-MRK-560) in-house studies were used. The additional dataset consisted of Aβ levels measured in Tg2576 mice of various ages, between 3.5 and 26 months at termination. Details of those data can be found in Appelkvist et al. ([2011]). In total, data from 71 preclinical studies were used.
# (§2) After blood sampling, mice were sacrificed by decapitation followed by brain samples collection. Cerebellum and olfactory bulbs were removed and the forebrain was divided into left and right hemispheres, weighed, and snap frozen.
# (§3) Left hemisphere of the cerebrum was sequentially extracted by diethylamine (DEA) followed by formic acid (FA) to obtain soluble and insoluble fractions of Aβ species, respectively. In short, brain tissue was sonicated in 1:18 (w/v) 0.2% DEA and 50 mmol/L NaCl, pH 11.6. After centrifugation (133,000g, 4°C, 1 h), the supernatant (soluble Aβ) was recovered, neutralized to a pH of 8.0 using 2 mol/L Tris-HCl, and immediately frozen to -70°C. The remaining pellet was sonicated in 1:18 (w/v) 70% FA. Homogenates were centrifuged at +4°C for 1 h at 133,000g. Recovered supernatants (insoluble Aβ) were neutralized to pH 7.5 with 1 mol/L Tris at 1:20 (w/v) dilutions, frozen on dry ice, and stored at −70°C until analysis.
# (§4) Amyloid beta (Aβ40) and Aβ42 concentrations were measured in plasma, in soluble (DEA), and insoluble (FA) brain fractions using commercial sandwich ELISA kits (KHB3482 from Invitrogen, Carlsbad, CA, and RUO80177 from Innogenetics, Gent, Belgium). To compensate for matrix effects, plasma or brain homogenates from non-transgenic mice were used for preparation of standard curves. The lower and higher limits of quantification (LLOQ and HLOQ) were determined for each immunoassay plate based on the lowest and highest standard point, respectively. The coefficient of variation was less than20% and the accuracy was between 80% and 120%.
# (§5) Statistical comparisons of the vehicle and MRK-560 treatment data were made by unpaired t-tests. The level of significance was set at P < 0.05. All analyses were performed using GraphPad Prism (GraphPad Prism Software Inc., San Diego, CA) and results were reported as mean ± SEM.
# [3] = system: insoluble Aβ40; experiment: Insoluble (FA) brain Aβ40 levels in Tg2576 mice after MRK-560, ELISA; assay type: in vivo, Tg2576 transgenic mice
# Text: as §1, §2, §3, §4, §5
# [4] = Plasma unbound fraction; assay type: in vitro ADME; conditions: observed, read-out: fu,pl (plasma unbound fraction)
# [5] = system: soluble Aβ40; set-up: method as in Townsend et al. [2010]; conditions: 12-month-old Tg2576 mice; 3-month MRK-560 treatment; ref Townsend et al. [2010]; cited from earlier work
# [6] = study 8, Tg2576, 24 weeks at start, 0.5 μmol/kg p.o., 30 days, 3 h since last dosing
# [7] = study 8, Tg2576, 24 weeks at start, 6 μmol/kg p.o., 30 days, 3 h since last dosing, P < 0.05
# [8] = study 9, Tg2576, 24 weeks at start, 0.5 μmol/kg p.o., 94 days, 3 h since last dosing
# [9] = study 9, Tg2576, 24 weeks at start, 6 μmol/kg p.o., 94 days, 3 h since last dosing
# [10] = study 10, Tg2576, 24 weeks at start, 1 μmol/kg p.o., 29 days, 3 h since last dosing, P < 0.05
# [11] = study 10, Tg2576, 24 weeks at start, 3 μmol/kg p.o., 29 days, 3 h since last dosing, P < 0.05
# [12] = study 10, Tg2576, 24 weeks at start, 6 μmol/kg p.o., 29 days, 3 h since last dosing, P < 0.05
# [13] = study 11, Tg2576, 24 weeks at start, 6 μmol/kg p.o., 30 days, 3 h since last dosing, P < 0.05
# [14] = study 17, Tg2576, 68 weeks at start, 6 μmol/kg p.o., 4 days, 3 h since last dosing
# [15] = study 22, Tg2576, 24–28 weeks at start, 30 μmol/kg p.o., 45 days, 4.5 h since last dosing, P < 0.05
# [16] = study 23, Tg2576, 37–40 weeks at start, 30 μmol/kg p.o., 28 days, 4.5 h since last dosing, P < 0.05
smiles,measurement,setting,value
"O=S(=O)(NC1CCC(c2cc(F)ccc2F)(S(=O)(=O)c2ccc(Cl)cc2)CC1)C(F)(F)F (stereo not drawn) [MRK-560, N-[cis-4-[(4-chlorophenyl)-sulfonyl]-4-(2,5-difluorophenyl)cyclohexyl]-1,1,1-trifluoromethanesulfonamide]",decrease in total Aβ40 levels,[1],43%
same,decrease from baseline in soluble Aβ40 levels,"[2]; 70 μmol/kg single dose, young mice, 6 h after dosing",74%
same,Effect on soluble Aβ40,"[2]; study 7, Tg2576, 20 weeks at start, 70 μmol/kg p.o., 4 days, 3 h since last dosing, P < 0.05",−72 ^* %
same,Effect on soluble Aβ40,[2]; [6],−6%
same,Effect on soluble Aβ40,[2]; [7],−45.6 ^* %
same,Effect on soluble Aβ40,[2]; [8],−17%
same,Effect on soluble Aβ40,[2]; [9],−28%
same,Effect on soluble Aβ40,[2]; [10],−26 ^* %
same,Effect on soluble Aβ40,[2]; [11],−41 ^* %
same,Effect on soluble Aβ40,[2]; [12],−47 ^* %
same,Effect on soluble Aβ40,[2]; [13],−40 ^* %
same,Effect on soluble Aβ40,"[2]; study 12, Tg2576, 25 weeks at start, 70 μmol/kg p.o., 1 day, 3 h since last dosing, P < 0.05",−76 ^* %
same,Effect on soluble Aβ40,"[2]; study 13, Tg2576, 25 weeks at start, 1 μmol/kg p.o., 4 days, 3 h since last dosing, P < 0.05",−41 ^* %
same,Effect on soluble Aβ40,"[2]; study 13, Tg2576, 25 weeks at start, 3 μmol/kg p.o., 4 days, 3 h since last dosing, P < 0.05",−56 ^* %
same,Effect on soluble Aβ40,"[2]; study 13, Tg2576, 25 weeks at start, 7.5 μmol/kg p.o., 4 days, 3 h since last dosing, P < 0.05",−69 ^* %
same,Effect on soluble Aβ40,"[2]; study 14, Tg2576, 25 weeks at start, 70 μmol/kg p.o., 1 day, samples 3, 6, 24, 48, 120 h (text: 74% at 6 h), P < 0.05",−74 ^* %
same,Effect on soluble Aβ40,"[2]; study 15, Tg2576, 36 weeks at start, 6 μmol/kg p.o., vehicle 3, 8 days, 3 h since last dosing, P < 0.05",−50 ^* %
same,Effect on soluble Aβ40,"[2]; study 16, Tg2576, 60 weeks at start, 6 μmol/kg p.o., 4 days, 3 h since last dosing",−17%
same,Effect on soluble Aβ40,[2]; [14],−6.3%
same,Effect on soluble Aβ40,"[2]; study 18, Tg2576, 81–89 weeks at start, 70 μmol/kg p.o., 1 day, samples 6, 24, 48, 96 h, time of this value not given",8%
same,Effect on soluble Aβ40,"[2]; study 19, Tg2576, 32 weeks at start, 30 μmol/kg p.o., 4 days, 4.5 h since last dosing, P < 0.05",−55 ^* %
same,Effect on soluble Aβ40,"[2]; study 20, Tg2576, 32 weeks at start, 30 μmol/kg p.o., 21 days, 4.5 h since last dosing, P < 0.05",−70 ^* %
same,Effect on soluble Aβ40,"[2]; study 21, Tg2576, 36 weeks at start, 6 μmol/kg p.o., vehicle 3, 8 days, 3 h since last dosing, P < 0.05",−63 ^* %
same,Effect on soluble Aβ40,[2]; [15],−57 ^* %
same,Effect on soluble Aβ40,[2]; [16],−56 ^* %
same,Effect on insoluble Aβ40,[3]; [6],−8%
same,Effect on insoluble Aβ40,[3]; [7],−57 ^* %
same,Effect on insoluble Aβ40,[3]; [8],3%
same,Effect on insoluble Aβ40,[3]; [9],32%
same,Effect on insoluble Aβ40,[3]; [10],−40 ^* %
same,Effect on insoluble Aβ40,[3]; [11],−42 ^* %
same,Effect on insoluble Aβ40,[3]; [12],−69 ^* %
same,Effect on insoluble Aβ40,[3]; [13],−31 ^* %
same,Effect on insoluble Aβ40,"[3]; study 15, Tg2576, 36 weeks at start, 6 μmol/kg p.o., vehicle 3, 8 days, 3 h since last dosing",2%
same,Effect on insoluble Aβ40,[3]; [14],−7.6%
same,Effect on insoluble Aβ40,"[3]; study 20, Tg2576, 32 weeks at start, 30 μmol/kg p.o., 21 days, 4.5 h since last dosing",−70%
same,Effect on insoluble Aβ40,"[3]; study 21, Tg2576, 36 weeks at start, 6 μmol/kg p.o., vehicle 3, 8 days, 3 h since last dosing",−30%
same,Effect on insoluble Aβ40,[3]; [15],−57 ^* %
same,Effect on insoluble Aβ40,[3]; [16],−67 ^* %
same,fraction unbound,[4],0.004
same,decrease in soluble Aβ40 levels,[5],63%
